Test results published in PubChem BioAssay (NCI).
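Values below derive from 48-hour exposures of cells grown in 96-well plates, with endpoints linearly interpolated between the two concentrations bracketing the appropriate inhibition level. TGI marks complete inhibition of growth.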

Experiments:
Experiment in all cases: growth of human tumour cells (NCI), 48 h
SNB-19 CNS = test system: SNB-19 CNS
MDA-N = test system: MDA-N
OVCAR-8 ovarian = test system: OVCAR-8 ovarian
SF-539 CNS = test system: SF-539 CNS
CCRF-CEM leukemia = test system: CCRF-CEM leukemia
SN12C renal = test system: SN12C renal
K-562 leukemia = test system: K-562 leukemia
HOP-62 NSCLC = test system: HOP-62 NSCLC
M14 melanoma = test system: M14 melanoma
OVCAR-5 ovarian = test system: OVCAR-5 ovarian

Compound	TGI (SNB-19 CNS)	TGI (MDA-N)	TGI (OVCAR-8 ovarian)	TGI (SF-539 CNS)	TGI (CCRF-CEM leukemia)	TGI (SN12C renal)	TGI (K-562 leukemia)	TGI (HOP-62 NSCLC)	TGI (M14 melanoma)	TGI (OVCAR-5 ovarian)
O=C(OCCN=c1c2ccccc2ccc2ccccc12)c1ccc([N+](=O)[O-])cc1	> 100 µM	> 100 µM	> 100 µM	> 100 µM	> 100 µM	> 100 µM	> 100 µM	> 100 µM	> 100 µM	> 100 µM
Cc1c(NC(=O)CSC(=S)N2CCN(Cc3ccccc3)CC2)c(=O)n(-c2ccccc2)n1C	> 100 µM	> 100 µM	> 100 µM	> 100 µM	> 100 µM	> 100 µM	> 100 µM	> 100 µM	> 100 µM	> 100 µM
COc1cc(C2c3cc4c(cc3OC(NNC(N)=O)C2C)OCO4)cc(OC)c1O (stereo not given)	> 100 µM	1.02 µM	> 100 µM	4.71 µM	> 100 µM	> 90.4 µM	> 100 µM	> 100 µM	> 42.6 µM	> 100 µM
COc1ccc(-c2cc(-c3cc4cc(Br)ccc4nc3Cl)c(C#N)c(N)n2)cc1	> 12.5 µM	> 12.5 µM	> 12.5 µM	> 12.5 µM	> 12.5 µM	> 12.5 µM	> 12.5 µM	> 12.5 µM	> 12.5 µM	> 12.5 µM
N#Cc1ccccc1-c1nc2c3c(c(N)ccc3n1)C(=O)c1ccccc1-2	> 100 µM	> 100 µM	> 100 µM	> 100 µM	> 100 µM	> 100 µM	> 100 µM	> 100 µM	> 100 µM	> 100 µM
CCOC(=O)c1nc2ccc(C(F)(F)F)cc2nc1Oc1cc(OC)cc(OC)c1	> 100 µM	> 100 µM	> 100 µM	> 100 µM	> 100 µM	> 100 µM	> 100 µM	> 100 µM	> 100 µM	> 100 µM
COC(=O)c1c(O)ccc2c1c1c(n2Cc2cccc(C)c2)C(=O)c2ccccc2C1=O	27.9 µM	33.7 µM	21.9 µM	28.2 µM	22.5 µM	22.2 µM	35 µM	31.3 µM	32.3 µM	52.7 µM
Cc1ccc2c(c1C)C(=O)/C(=C/c1ccccc1C(=O)O)C2	> 100 µM	> 100 µM	> 100 µM	> 100 µM	> 100 µM	> 100 µM	> 100 µM	> 100 µM	> 100 µM	> 100 µM
C=C(C)C(O)C(O)c1c(OC)ccc2ccc(=O)oc12 (stereo not given)	> 100 µM	> 100 µM	> 100 µM	> 100 µM	> 100 µM	> 100 µM	> 100 µM	> 100 µM	> 100 µM	> 100 µM
COc1ccc(NC(C)=O)cc1N1C(=O)/C(=C\c2cc(OC)c(OC)c(OC)c2)SC1c1ccccc1 (stereo not given)	> 100 µM	72.3 µM	> 100 µM	> 100 µM	> 100 µM	> 100 µM	> 100 µM	> 100 µM	> 100 µM	> 100 µM
CSC1=N/C(=C\c2ccco2)C(=O)N1CN1CCOCC1	> 100 µM	> 100 µM	> 100 µM	35.3 µM	> 90.3 µM	> 88.7 µM	> 100 µM	> 100 µM	> 100 µM	> 100 µM
CC1(C)CC(C)(C)C1=NNC(N)=O	> 100 µM	> 100 µM	> 100 µM	> 100 µM	> 100 µM	> 100 µM	> 100 µM	> 100 µM	> 100 µM	> 100 µM
CCOc1cc(C2CC(c3ccc(NS(=O)(=O)c4cc([N+](=O)[O-])ccc4C)cc3)=NN2c2ccc([N+](=O)[O-])cc2[N+](=O)[O-])ccc1O (stereo not given)	34.5 µM	39.5 µM	49 µM	25.5 µM	> 100 µM	9.97 µM	> 100 µM	27.3 µM	31.6 µM	60.3 µM
c1ccc2c(c1)CCc1c-2n(CCN2CCOCC2)c2ccccc12	> 100 µM	> 100 µM	> 100 µM	> 100 µM	61.5 µM	> 100 µM	> 100 µM	> 100 µM	> 100 µM	> 100 µM
O=C(O)c1nc(-c2ccccc2)[nH]c1C(=O)O	25.1 µM	24.4 µM	29.7 µM	22.7 µM	3.04 µM	26.6 µM	15.3 µM	32.6 µM	25.2 µM	31.7 µM
CC1(C)C2C=CC1(C)C1(CC2)OCCO1 (stereo not given)	> 100 µM	> 100 µM	> 100 µM	> 100 µM	> 100 µM	> 100 µM	> 100 µM	> 100 µM	> 100 µM	> 100 µM
COc1ccc(C(SC2C(O)C(CO)OC2n2ccc(N)nc2=O)(c2ccccc2)c2ccc(OC)cc2)cc1 (stereo not given)	64.4 µM	24.2 µM	> 100 µM	36.3 µM	> 100 µM	27.5 µM	88.3 µM	40.5 µM	27.9 µM	50.8 µM
Nc1ncnc2c1nnn2C1CCC(CP(=O)(O)O)C1 (stereo not given)	> 100 µM	> 100 µM	> 100 µM	> 100 µM	> 100 µM	> 100 µM	> 100 µM	> 100 µM	> 100 µM	> 100 µM
CC1(C)CC(=O)c2c(nc3ccc4ccccc4c3c2-c2ccc(NC(=O)CCCCCCCCC(=O)Nc3ccc(-c4c5c(nc6ccc7ccccc7c46)CC(C)(C)CC5=O)cc3)cc2)C1	> 100 µM	> 100 µM	> 100 µM	> 100 µM	> 100 µM	> 100 µM	> 100 µM	> 100 µM	> 100 µM	> 100 µM

Compound	TGI (SNB-19 CNS)	TGI (MDA-N)	TGI (OVCAR-8 ovarian)	TGI (SF-539 CNS)	TGI (CCRF-CEM leukemia)	TGI (SN12C renal)	TGI (K-562 leukemia)	TGI (HOP-62 NSCLC)	TGI (M14 melanoma)	TGI (OVCAR-5 ovarian)
COc1ccc(-c2c(C#N)c(S)n(NS(=O)(=O)c3ccc(C)cc3)c(=O)c2C#N)cc1	> 100 µM	37.5 µM	74.8 µM	29.8 µM	26.8 µM	34.8 µM	47.2 µM	> 100 µM	52.9 µM	60.7 µM
CC(=O)c1c(C(F)(F)F)n([O-])c2cc(Cl)c(Cl)cc2[n+]1=O	2.27 µM	2.41 µM	1.84 µM	2.46 µM	0.563 µM	2.69 µM	3.42 µM	0.887 µM	2.61 µM	3.29 µM
Cc1c2c(n(CCc3ccc(Cl)cc3)c1C)NC(c1ccccc1)C(C#N)S2(=O)=O (stereo not given)	> 100 µM	> 74.9 µM	> 100 µM	> 100 µM	5.07 µM	> 100 µM	47.8 µM	> 100 µM	> 100 µM	> 100 µM
O=c1oc2ccccc2cc1-c1cn2cc(Cl)ccc2n1	3.66 µM	0.428 µM	18.6 µM	22.2 µM	> 100 µM	22.4 µM	> 100 µM	6.22 µM	15.2 µM	33.3 µM
CC1(O)CC(=O)c2c(cc3ccc(-c4c5c(c(O)c6c(O)cccc46)C(=O)CC(C)(O)C5)c(O)c3c2O)C1 (stereo not given)	4.37 µM	14.2 µM	3.76 µM	2.34 µM	10.5 µM	13.1 µM	11.9 µM	1.55 µM	7.11 µM	8.66 µM
COc1cc(/C=C2/C[C@H]3[C@@H]4CC=C5C[C@@H](OC(C)=O)CC[C@]5(C)[C@H]4CC[C@]3(C)NC2=O)cc(OC)c1OC	41.9 µM	> 100 µM	> 100 µM	37.5 µM	> 100 µM	> 100 µM	> 100 µM	73.1 µM	> 100 µM	92.2 µM
C[C@H]1C[C@H]2[C@@H]3C(C)(C)O[C@]4(O)C(=O)[C@]5(O)[C@@H](C)CC[C@H]1[C@]25C(=O)[C@]34C	> 100 µM	> 100 µM	> 100 µM	> 100 µM	> 100 µM	> 100 µM	> 100 µM	> 100 µM	> 100 µM	> 100 µM
S=C1SCN(Cc2ccco2)CN1c1ccc(Br)cc1	72.2 µM	94.8 µM	93.9 µM	36.2 µM	67.4 µM	66.4 µM	15.9 µM	51.9 µM	29 µM	34.5 µM
COc1ccccc1NC(=O)CC(=O)N1N=C(C)C(N=Nc2ccc(C(=O)O)cc2)C1=O (stereo not given)	> 100 µM	> 100 µM	> 100 µM	> 100 µM	> 100 µM	> 100 µM	> 100 µM	> 100 µM	> 100 µM	> 100 µM
O=C(c1cc(Cl)ccc1Cl)N1CCN(C(=O)c2cc(Cl)ccc2Cl)CC1	> 100 µM	> 100 µM	> 100 µM	> 100 µM	> 100 µM	> 100 µM	> 100 µM	> 100 µM	> 100 µM	> 100 µM
COc1ccc(-n2c(=O)n(C)c(=O)n2-c2ccc(OC)cc2)cc1	> 100 µM	> 100 µM	> 100 µM	> 100 µM	> 100 µM	> 100 µM	> 100 µM	> 100 µM	> 100 µM	> 100 µM
CCCCCCCCCCCCCCCCCCNc1ccn(C2OC(COP(=O)(O)OCC3OC(n4cc(F)c(NCCCCCCCCCCCCCCCCCC)nc4=O)CC3O)C(O)C2O)c(=O)n1 (stereo not given)	> 100 µM	> 100 µM	> 100 µM	> 100 µM	> 100 µM	> 100 µM	> 100 µM	> 100 µM	> 100 µM	> 100 µM
O=C(O)c1ccn(-c2cccc(-n3ccc(C(=O)O)n3)n2)n1	> 100 µM	> 100 µM	> 100 µM	> 100 µM	> 100 µM	> 100 µM	> 100 µM	> 100 µM	> 100 µM	> 100 µM
CN1CCN(CCCBr)CC1	> 100 µM	> 100 µM	> 100 µM	> 100 µM	> 100 µM	> 100 µM	> 100 µM	> 100 µM	> 100 µM	> 100 µM
O=C1/C(=N\S(=O)(=O)c2ccccc2)C([n+]2ccc(Cc3ccccc3)cc2)=C([O-])c2ccccc21	3.3 µM	0.346 µM	8.06 µM	3.45 µM	> 100 µM	3.12 µM	> 100 µM	3.27 µM	2.68 µM	3.49 µM
CCOC(=O)c1c(N2CCCC2)ncn(Cc2ccccc2)c1=S	> 100 µM	> 100 µM	> 100 µM	> 100 µM	> 100 µM	> 100 µM	> 100 µM	> 100 µM	> 100 µM	> 100 µM
CCCC(=O)NC(Nc1ccc(S(=O)(=O)Nc2nc(C)cc(C)n2)cc1)(C(F)(F)F)C(F)(F)F	> 100 µM	> 100 µM	> 100 µM	> 100 µM	> 100 µM	> 100 µM	> 100 µM	> 100 µM	> 100 µM	> 100 µM
O=c1[nH]nc(-c2ccccc2)n1/N=C/c1cccnc1	> 100 µM	> 100 µM	> 100 µM	> 100 µM	> 100 µM	> 100 µM	> 100 µM	> 100 µM	> 100 µM	> 100 µM
CCOP(=O)(OCC)C1CC(n2cc(C)c(=O)[nH]c2=O)OC1CO (stereo not given)	> 100 µM	> 100 µM	> 100 µM	> 100 µM	> 100 µM	> 100 µM	> 100 µM	> 100 µM	> 100 µM	> 100 µM
